Source: publication PMC9016807, “Metabolic, Pharmacokinetic, and Activity Profile of the Liver Stage Antimalarial (RC-12)” (ACS Omega, 2022)

What was measured:
[1] = Metabolism in human liver microsomes; assay type: in vitro ADME; conditions: 1 μM substrate, NADPH
Procedure: Following the protocols described by Charman et al.,[28]1 was incubated at 37 °C with human, rat, and rhesus monkey liver microsomes. For the determination of intrinsic clearance, the substrate concentration was 1 μM and the protein concentration was 0.4 mg/mL; for qualitative metabolite identification studies, the substrate and protein concentrations were 10 μM and 1 mg/mL, respectively. The reaction was initiated by the addition of an NADPH-regenerating buffer system, and the samples were incubated for up to 60 (for Clint determination) or 180 min (for additional metabolite identification). Samples without the test compound and without NADPH were also incubated and used as controls. The reaction was quenched by protein precipitation with the addition of an equal volume of ice-cold acetonitrile solution (containing diazepam as an internal standard), followed by vortexing and centrifugation for 3 min at 10000 rpm. The supernatant was removed and analyzed by LC/MS. LC/MS analysis was conducted using a Waters Micromass Xevo G2 QTOF MS coupled to a Waters Acquity UPLC. For metabolite identification, a Supelco Ascentis Express Amide column (50 × 2.1 mm, 2.7 μm) was used with an acetonitrile–water gradient (containing 0.05% formic acid), a flow rate of 0.4 mL/min, a gradient cycle time of 6 min, and an injection volume of 5 μL. MS analysis was conducted using positive mode electrospray ionization under MSE acquisition mode, which allows simultaneous acquisition of MS spectra at low and high collision energies. The identity of putative metabolites was confirmed by the accurate mass and a comparison of the retention times and MS/MS fragmentation patterns with authentic metabolites where available. For metabolite quantitation, the method described below for the analysis of plasma samples was used.

[2] = system: P. vivax liver-stage parasites; experiment: P. vivax liver-stage in vitro assay, prophylactic mode; assay type: cell-based, Plasmodium vivax; conditions: 20 μM, two independent runs, threshold for activity 75% inhibition
Procedure: (§1) Compound 1 and its metabolites were tested in both prophylactic and radical cure modes for activity against P. vivax liver-stage parasites.[16],[17] In the prophylactic assay, compounds are added the day after sporozoite invasion into hepatocytes in order to characterize the compound activity against established liver forms with a parasitophorous vacuole membrane (as opposed to activity on preinvasion sporozoites) and prior to complete maturation of hypnozoites into drug-insensitive dormant forms, which appear at about 5 days postinvasion.[18] In the radical cure assay, compounds are added at day 5 postinfection to characterize activity against late-stage schizonts and mature PI4K inhibitor-insensitive hypnozoites.[19] In these experiments, the threshold for activity is 75% inhibition. […] Similarly, as previously described,[20] 10 μM concentrations of 1 and its metabolites were also tested for activity against P. cynomolgi schizont (large forms) and hypnozoite (small forms) liver-stage parasites cultured in rhesus monkey hepatocytes. In these experiments, the threshold for activity is 50% inhibition.
(§2) Compounds were prepared as 20 mM stock solutions in DMSO and tested in an eight-point semilog (1/3) dilution series from 20 μM in 384-well assay plates in both prophylactic and radical cure mode against P. vivax liver-stage parasites as previously described.[16] Following ethical approval from the Institutional Ethics Committee of the Thai Ministry of Public Health, the Ethical Review Committee of Faculty of Tropical Medicine, Mahidol University (TMEC 11-008 and 14-016), the Oxford Tropical Medicine Ethical Committee, Oxford University, England (OxTREC 17-11 and 40–14), and the Cambodian National Ethics Committee for Health Research (101NECHR), isolates of P. vivax infected blood were collected from patent volunteers in Tak province, Thailandm and Mondulkiri province, Cambodia. Samples were collected by venipuncture into heparin tubes prior to replacement of patient serum with nonimmune AB human serum and feeding to laboratory-reared Anopheles dirus cracens or An. dirus A mosquitoes via water-jacket artificial membrane feeders or the Hemotek insect feeding system (Hemotek, Blackburn, UK) set to maintain the bloodmeal temperature at 37 °C. […] Cryopreserved human hepatocytes (BioIVT, Baltimore, Maryland, USA) were thawed into InVitroGro CP Medium (BioIVT), quantified for viability by trypan blue dye exclusion, diluted to 800–1000 live cells per microliter, and 18000 live cells were plated into each well of a collagen-coated 384-well plate (Greiner, Monroe, NC, USA) by a 16-channel pipet (Finnpipette, Thermo Fisher Scientific, Waltham, MA). […]

[3] = system: P. vivax liver-stage parasites; experiment: P. vivax liver-stage in vitro assay, radical cure mode; assay type: cell-based, Plasmodium vivax; conditions: 20 μM, two independent runs, threshold for activity 75% inhibition
Procedure: as §1, §2

With CCN(CC)CCN(CCN(CC)CC)c1cc(OC)c(OC)cc1Br [Compound 1, 4-(2-bromo-4,5-dimethoxyphenyl)-1,1,7,7-tetraethyldiethylenetriamine] the “average substrate depletion over a 60 min incubation” value ([1]; 0.4 mg/mL protein, relative to initial substrate concentration) was <10%, the microsomal CLint at 1 μM ([1]; human, liver microsomes, 0.4 mg/mL microsomal protein, 37 °C, 60 min, average of three replicates, read-out: CLint) was < 3 µL/min/mg and the “activity against schizonts or hypnozoites” value [2] was “no activity”. For the same compound, the “activity against schizonts or hypnozoites” value [3] was “no activity”.
